What was measured:
Type in all cases: physicochemical
[1] = Dilution experiment (precipitation on dilution with water); conditions: solutions in distilled water, ZLP 200 mg/mL, ZLC 185 mg/mL; diluted with water at ratios from 1:2 to 1:16; ZLC result at dilutions of 1:8 to 1:16
Procedure: (§1) A solution of ZLP in distilled water at a concentration of 200 mg/mL (23.6 wt % zinc) is prepared. For comparison, a solution of zinc-lysine-chloride complex (ZLC) ([Zn(lysine)2Cl]Cl) is prepared at a concentration of 185 mg/mL. Both solutions are diluted with water at ratios from 1:2 to 1:16.

[2] = Storage of undiluted solution at room temperature, repeat LC-MS analysis; conditions: undiluted 200 mg/mL solution stored at room temperature for one month
Procedure: About 6.0 g of lysine hydrochloride is dissolved in 250 ml distilled water with stirring at room temperature. About 12.0 g sodium tripolyphosphate pentabasic is added with stirring, followed by either 50% aqueous sodium hydroxide solution or concentrated hydrochloric acid solution to adjust the pH to either 5, 6, 7, 8, 9 or 10. To the resulting solution, about 2.68 g of zinc oxide is slowly added. The mixture is then allowed to stir at either room temperature, 50° C. or 80° C., for 2 hours. The reaction is monitored by liquid chromatography-mass spectrometry (LC-MS, using electrospray ionization-tandem mass spectrometer running positive ion mode). LC separation is achieved on Agilent Zorbax SB-Aq column (2.1 mm i.d.×50 mm, 3.5 μm particle size), running 5% water/methanol at 70 μL/minute with 1 μL injection volume.
as §1

[3] = Foaming experiment with sodium lauryl sulfate; conditions: 7.25 wt % complex (0.85 wt % zinc) with 2 wt % sodium lauryl sulfate in distilled water; vial shaken ten times
Procedure: A solution of ZLP in distilled water at a concentration of 7.25 wt % (0.85 wt % zinc) containing also 2 wt % of sodium lauryl sulfate is compared to a solution of ZLC and sodium lauryl sulfate at the same concentrations and to a solution of sodium lauryl sulfate. Each solution is sealed in a screw-cap vial and shaken back and forth ten times. […] A similar experiment is conducted using an 1:10 aqueous slurry of the toothpaste formula of Example 1 compared to a control toothpaste having the same composition except for the absence of ZLP (in the control, the 7.25% ZLP is replaced by 0.5 wt % TSPP and 6.75 wt % sorbitol, 70%).

[4] = Polyphosphate experiment (mixing with STPP solution); conditions: 5 mL of aqueous complex solution mixed with 5 mL of 2 wt % STPP solution
Procedure: Aqueous solutions of ZLP and ZLC, respectively, are prepared as described above, and 5 mL of each of these solutions is mixed with 5 mL STPP solution at a concentration of 2 wt %. […] Thus, ZLP complex is stable in the presence of additional STPP, whereas other zinc complexes may not be.

[5] = Titration of zinc chloride with sodium tripolyphosphate, clarity of solution; conditions: zinc chloride titrated with sodium tripolyphosphate; solution cloudy until about 1 equivalent of STPP was added
Procedure: In the single component titration procedure, a scintillation vial (20 mL) is loaded with 2 mL of a 0.25M zinc nitrate solution and 6 mL of distilled water. The vial is stirred on a magnetic stir plate with an immersed pH electrode. Initial pH is measured. While stirring, the solution is slowly titrated with a 0.75M aqueous solution of arginine in small portions (e.g., 0.01-0.1 mL). In between each addition, the solution is allowed to equilibrate and the pH is recorded. At the conclusion of the experiment, the molar equivalent of added arginine is plotted against the pH. The slope is calculated and plotted as well to highlight the inflection points, which indicate where complex formation takes places.
Substantially the same single-component titration procedure is also performed in a titration of 0.75M zinc chloride with 0.25M sodium tripolyphosphate.

Row | Molecule | precipitation upon dilution with water [1] | change of LC-MS spectrum after storage [2] | foaming of solution with SLS relative to aqueous SLS solution [3] | appearance after mixing with STPP solution [4] | solubility in aqueous titration solution [5]
1 | [Zn(C6H14N2O2)(P3O10)Na4]^+Cl^− [ZLP] | no precipitation occurs at any dilution | has not changed | comparable | remains clear and homogenous | 
2 | O=P([O-])([O-])OP(=O)([O-])OP(=O)([O-])[O-].[Na+].[Zn+2].[Zn+2] [NaZn2(P3O10)] |  |  |  |  | poorly soluble
3 | NCCCCC(N)C(=O)O.NCCCCC(N)C(=O)O.[Cl-].[Cl-].[Zn+2] (stereo not drawn) [ZLC, [Zn(lysine)2Cl]Cl] | significant precipitation of insoluble material |  | significantly inhibited | produces a white precipitate | 
4 | O=P([O-])([O-])OP(=O)([O-])OP(=O)([O-])[O-].[Na+].[Na+].[Na+].[Zn+2] [Na3Zn(P3O10)] |  |  |  |  | soluble
